Measured values from US10815199B2, “NMDA antagonist prodrugs” (priority 2013, dated 2020).
Where a name gives a salt, the structure may show the parent alone. Read-outs that look alike come from different tables or passages of the source.

Key:
[1] = system: Seizures in dog; assay: Seizures in dog (NOEL/LOEL) after oral gavage; format: in vivo; details: for LOEL Seizures in dog (Dose administered) / NOEL Seizures in dog (Dose administered): oral gavage, dose reflects free base concentration
Procedure: This example illustrates that when doses of prodrug of (S)-1-phenyl-2-(pyridin-2-yl)ethanamine dihydrochloride (Example 5) and (S)-1-phenyl-2-(pyridin-2-yl)ethanamine dihydrochloride were administered to dogs, the risk of seizures, as represented by NOEL and LOEL, was less with the prodrug.
(S)-1-phenyl-2-(pyridin-2-yl)ethanamine dihydrochloride and vehicle were administered once per day via oral gavage (water). Formulations were prepared twice, once weekly. Dosing formulations were stored and refrigerated (2-8° C.) in amber glass containers until required for dosing. A range of concentrations of (S)-1-phenyl-2-(pyridin-2-yl)ethanamine dihydrochloride in vehicle were prepared in order to keep the dose volume for all doses (1 mL/kg). Individual doses were based on the most recent body weights of dogs used in the study.
A prodrug of (S)-1-phenyl-2-(pyridin-2-yl)ethanamine as fumarate salt (example 5) and vehicle were administered once per day for 14 days via oral gavage at approximately the same time each day (±1 hour), (vehicle is 0.3 M gluconic acid pH 3.0). A range of concentrations of prodrug of (S)-1-phenyl-2-(pyridin-2-yl)ethanamine as fumarate salt in vehicle were prepared (for example 3, 10 and 30 mg/mL of prodrug of (S)-1-phenyl-2-(pyridin-2-yl)ethanamine) in order to keep the dose volume for all doses (2 mL/kg). The dosing formulations were warmed to room temperature by stirring for at least 30 minutes prior to dosing and continuously throughout the administration procedure. Individual doses were based on the most recent body weights of dogs used in the study.
Table 4 Compound 1 is (S)-1-phenyl-2-(pyridin-2-yl)ethanamine. […] In each case the highest blood concentration (Cmax) of free base (S)-1-phenyl-2-(pyridin-2-yl)ethanamine is measured. In the first case, the free base (S)-1-phenyl-2-(pyridin-2-yl)ethanamine is generated directly from Compound 1, administered as the dihydrochloride salt. In the second case, the free base (S)-1-phenyl-2-(pyridin-2-yl)ethanamine is generated via in vivo conversion from a prodrug of Compound 1, administered as the fumarate salt. The NOEL for seizures was higher when the prodrug of (S)-1-phenyl-2-(pyridin-2-yl)ethanamine as fumarate salt was administered compared to when (S)-1-phenyl-2-(pyridin-2-yl)ethanamine as dihydrochloride salt was administered.

[2] = Hum Liver Assay (human liver S9 fraction); format: in vitro ADME
Source text: This example illustrates that different prodrugs of (S)-1-phenyl-2-(pyridin-2-yl)ethanamine, wherein R1 is C1-6 alkylC(O)O(C1-6 alkoxy), may be used to achieve differing rates of conversion (i.e., slow or rapid) to (S)-1-phenyl-2-(pyridin-2-yl)ethanamine to ascertain a suitable PK profile. […] Further, this Example illustrates that there is no expected loss in oral exposure when a prodrug is converted to free base. Conversion of a prodrug wherein R1 is C1-6 alkylC(O)O(C1-6 alkoxy) to (S)-1-phenyl-2-(pyridin-2-yl)ethanamine is expected to occur via an initial enzymatic hydrolysis of a functional group, such as an ester, followed by a spontaneous conversion to (S)-1-phenyl-2-(pyridin-2-yl)ethanamine. Enzymes involved are expected to be several non-specific, high capacity esterases, which can be shown by inhibiting the conversion with a non-selective esterase inhibitor but not inhibiting the conversion using selective inhibitors. Such esterases are expected to be distributed throughout the human body. Human Intestinal Fluid (HIF), human liver S9 fraction and human whole blood have been used to examine the pharmacokinetic properties of the prodrugs of (S)-1-phenyl-2-(pyridin-2-yl)ethanamine as well as the formation rate and formation extent of the (S)-1-phenyl-2-(pyridin-2-yl)ethanamine in different bodily compartments. The formation rate of (S)-1-phenyl-2-(pyridin-2-yl)ethanamine from different prodrugs of (S)-1-phenyl-2-(pyridin-2-yl)ethanamine differs markedly in all tested assays, as shown in Table 1.
Human Intestinal Fluids (HIF), Human Liver and Human Blood assays used to generate the results shown in Table 1 have been described in Malmborg J & Ploeger B A, J Pharmacol Toxicol Methods (2013) May-June 67(3) 203-13, which is incorporated by reference herein.
(§1) [drawing 48] is expected to occur via enzymatic hydrolysis at the proline C-terminus, releasing a dipeptide and (S)-1-phenyl-2-(pyridin-2-yl)ethanamine. The enzyme involved is expected to be dipeptidyl peptidase IV (DPPIV), which can be shown by inhibiting the conversion with a selective inhibitor of this enzyme. DPPIV is expected to be distributed throughout the human body. Human Intestinal Fluid (HIF), human liver S9 fraction and human whole blood have been used to examine the pharmacokinetic properties of prodrugs of (S)-1-phenyl-2-(pyridin-2-yl)ethanamine as well as the formation rate and formation extent of the (S)-1-phenyl-2-(pyridin-2-yl)ethanamine in different bodily compartments. Caco-2 cells have been used to evaluate the permeability and absorption potential of the prodrugs of (S)-1-phenyl-2-(pyridin-2-yl)ethanamine. The formation rate of (S)-1-phenyl-2-(pyridin-2-yl)ethanamine from different prodrugs of (S)-1-phenyl-2-(pyridin-2-yl)ethanamine differed in the tested assays, especially in human blood, as shown in Table 2.

[3] = Caco-2 permeability; format: in vitro ADME; details: human; Caco-2 cells
Source text: as §1

[4] = Conversion of prodrug at increasing initial concentrations in human intestinal fluid (LC-UV); format: in vitro ADME; details: initial concentrations 33, 100, 300 and 600 μmol/L, FIG. 1a and 1b
Procedure: FIGS. 1a and 1b illustrates the conversion of prodrug of (S)-1-phenyl-2-(pyridin-2-yl)ethanamine (Example 5) to (S)-1-phenyl-2-(pyridin-2-yl)ethanamine during an incubation period in human intestinal fluid. In particular, FIG. 1a illustrates prodrug of (S)-1-phenyl-2-(pyridin-2-yl)ethanamine (Example 5) concentration (initial concentrations of 30, 100, 300 and 600 as it transforms to (S)-1-phenyl-2-(pyridin-2-yl)ethanamine, during an incubation period in human intestinal fluid. FIG. 1b illustrates (S)-1-phenyl-2-(pyridin-2-yl)ethanamine concentration, as it converts from prodrug of (S)-1-phenyl-2-(pyridin-2-yl)ethanamine (Example 5, initial concentrations of 30, 100, 300 and 600 μM), during an incubation period in human intestinal fluid. […]
Stock solutions of prodrug of (S)-1-phenyl-2-(pyridin-2-yl)ethanamine (0.33, 1, 3 and 6 mmol/L) were prepared by adding a volume (8.25, 25, 75 and 150 μL) of 20 mmol/L solution of prodrug of (S)-1-phenyl-2-(pyridin-2-yl)ethanamine dissolved in DMSO, to FaSSIF-v2 (491.75, 475, 425 and 350 μL). […] The conversion rate from prodrug to (S)-1-phenyl-2-(pyridin-2-yl)ethanamine was determined by fitting the measured prodrug and (S)-1-phenyl-2-(pyridin-2-yl)ethanamine concentrations versus time.

[5] = human, s9, Table 1, read-out: Prodrug Clint Hum Liver S9
[6] = human, s9, Table 2, read-out: Prodrug Clint Hum Liver S9

Compound | Papp [3] | microsomal CLint [2, 5] | microsomal CLint [2, 6] | other results
Cl.Cl.N[C@@H](Cc1ccccn1)c1ccccc1 [Compound 1, as di-HCl salt, (S)-1-phenyl-2-(pyridin-2-yl)ethanamine dihydrochloride, reference compound] | – | – | – | LOEL Seizures in dog (Dose administered) [1]: (20 mg/kg); NOEL Seizures in dog (Dose administered) [1]: (10 mg/kg)
N[C@@H](Cc1ccc(O)cc1)C(=O)N1CCC[C@H]1C(=O)N[C@@H](Cc1ccccn1)c1ccccc1 [Example 8, 2-((S)-2-((S)-1-((S)-2-Amino-3-(4-hydroxyphenyl)propanoyl)pyrrolidine-2-carboxamido)-2-phenylethyl)pyridine dihydrochloride] | 3.2 ×10⁻⁶ cm/s | – | – | microsomal CLint ([2]; Table 2, read-out: Prodrug Clint Hum Liver S9): 51 µL/min/mg
CC(C)C(=O)OC(OC(=O)N[C@@H](Cc1ccccn1)c1ccccc1)C(C)C (single isomer, unassigned) [Example 2 Diastereomer 2] | – | 1900 µL/min/mg | – | –
N[C@@H](Cc1c[nH]cn1)C(=O)N1CCC[C@H]1C(=O)N[C@@H](Cc1ccccn1)c1ccccc1 [Example 7, (S)-1-((S)-2-Amino-3-(1H-imidazol-4-yl)propanoyl)-N—((S)-1-phenyl-2-(pyridin-2-yl)ethyl)pyrrolidine-2-carboxamide] | 1.6 ×10⁻⁶ cm/s | – | 33 µL/min/mg | –
CC(C)[C@H](N)C(=O)N1CCC[C@H]1C(=O)N[C@@H](Cc1ccccn1)c1ccccc1 [Example 5, (S)-1-((S)-2-Amino-3-methylbutanoyl)-N—((S)-1-phenyl-2-(pyridin-2-yl)ethyl)pyrrolidine-2-carboxamide] | 1.4 ×10⁻⁶ cm/s | – | 120 µL/min/mg | risk of seizures, as represented by NOEL and LOEL ([1]; dogs, prodrug versus (S)-1-phenyl-2-(pyridin-2-yl)ethanamine dihydrochloride): less; increase in concentration of (S)-1-phenyl-2-(pyridin-2-yl)ethanamine with increasing doses of prodrug [4]: less than proportional increases
CC(OC(=O)N[C@@H](Cc1ccccn1)c1ccccc1)OC(=O)C(C)C (single isomer, unassigned) [Example 4 Diastereomer 1] | – | 1200 µL/min/mg | – | –
NCCCC[C@H](N)C(=O)N1CCC[C@H]1C(=O)N[C@@H](Cc1ccccn1)c1ccccc1 [Example 6, (S)-1-((S)-2,6-Diaminohexanoyl)-N—((S)-1-phenyl-2-(pyridin-2-yl)ethyl)pyrrolidine-2-carboxamide] | 0.07 ×10⁻⁶ cm/s | – | 73 µL/min/mg | –
N=C(N)NCCC[C@H](N)C(=O)N1CCC[C@H]1C(=O)N[C@@H](Cc1ccccn1)c1ccccc1 [Example 12, 2-[(2S)-2-{[(2S)-1-[(2S)-2-Azaniumyl-5-{[azaniumyl(iminiumyl)methyl]amino}pentanoyl]-pyrrolidin-2-yl]formamido}-2-phenylethyl]pyridin-1-ium tetrachloride] | 8.6 ×10⁻⁶ cm/s | – | 69 µL/min/mg | –
CC(C)[C@H](N)C(=O)N1CCC[C@H]1C(=O)N[C@@H](Cc1ccccn1)c1ccccc1 [Prodrug of Compound 1, as fumarate salt, (S)-1-((S)-2-Amino-3-methylbutanoyl)-N-((S)-1-phenyl-2-(pyridin-2-yl)ethyl)pyrrolidine-2-carboxamide fumerate] | – | – | – | LOEL Seizures in dog (Dose administered) [1]: (60 mg/kg); NOEL Seizures in dog (Dose administered) [1]: (20 mg/kg)
CC(C)C(=O)OCOC(=O)N[C@@H](Cc1ccccn1)c1ccccc1 [Example 1, (S)-(1-Phenyl-2-(pyridin-2-yl)ethylcarbamoyloxy)methyl isobutyrate] | – | 2300 µL/min/mg | – | –
